Test results: US5153128A, “Heat-resistant β-galactosyltransferase, its production process and its use” (Suntory Limited, priority 1990, dated 1992)

Target: T1, heat-resistant β-galactosyltransferase produced by Saccharopolyspora rectivirgula SAM 1400 (Saccharopolyspora rectivirgula, UniProt Q9ZBD1)
T1 construct: about 140 kDa by gel filtration
Assay: Inhibitors: residual activity of the enzyme in the presence of compounds (Table 3)
Format: biochemical
Settings: enzyme in presence of the compound; compound concentration not given

T1 sequence (Q9ZBD1 entry or part of it, change not shown): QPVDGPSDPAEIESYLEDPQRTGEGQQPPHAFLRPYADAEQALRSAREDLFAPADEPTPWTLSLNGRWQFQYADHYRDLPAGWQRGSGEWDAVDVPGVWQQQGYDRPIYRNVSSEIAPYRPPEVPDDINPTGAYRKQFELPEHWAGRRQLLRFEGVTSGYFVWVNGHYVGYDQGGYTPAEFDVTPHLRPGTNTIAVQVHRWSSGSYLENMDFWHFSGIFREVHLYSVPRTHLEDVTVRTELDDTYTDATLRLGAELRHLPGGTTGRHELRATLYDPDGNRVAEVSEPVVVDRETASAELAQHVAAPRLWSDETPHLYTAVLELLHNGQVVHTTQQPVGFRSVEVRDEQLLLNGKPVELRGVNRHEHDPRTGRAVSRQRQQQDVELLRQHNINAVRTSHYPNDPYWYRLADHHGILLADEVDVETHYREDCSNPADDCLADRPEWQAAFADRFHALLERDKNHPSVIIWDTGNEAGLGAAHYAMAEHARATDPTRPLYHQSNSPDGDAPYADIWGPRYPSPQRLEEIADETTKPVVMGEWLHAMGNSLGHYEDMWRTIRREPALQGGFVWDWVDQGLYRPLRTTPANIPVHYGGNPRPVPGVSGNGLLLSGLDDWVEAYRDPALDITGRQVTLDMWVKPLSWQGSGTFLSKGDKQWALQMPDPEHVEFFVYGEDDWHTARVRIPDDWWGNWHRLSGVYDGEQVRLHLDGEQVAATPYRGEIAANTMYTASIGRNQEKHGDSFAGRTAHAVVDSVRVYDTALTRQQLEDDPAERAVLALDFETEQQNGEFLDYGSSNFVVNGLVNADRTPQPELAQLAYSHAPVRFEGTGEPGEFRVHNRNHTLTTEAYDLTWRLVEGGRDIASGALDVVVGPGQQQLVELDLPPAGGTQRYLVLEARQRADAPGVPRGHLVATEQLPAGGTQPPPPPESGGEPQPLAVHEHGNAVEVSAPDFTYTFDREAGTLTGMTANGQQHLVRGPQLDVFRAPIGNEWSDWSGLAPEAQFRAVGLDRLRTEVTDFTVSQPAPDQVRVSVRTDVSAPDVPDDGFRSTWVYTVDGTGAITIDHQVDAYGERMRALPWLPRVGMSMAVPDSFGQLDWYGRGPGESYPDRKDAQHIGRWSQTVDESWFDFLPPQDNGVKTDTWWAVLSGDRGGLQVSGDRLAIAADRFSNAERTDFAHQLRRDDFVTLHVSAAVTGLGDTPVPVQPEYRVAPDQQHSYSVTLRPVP

OCCS [2-Mercaptoethanol]
Residual activity: 96%
